Experimental data reported in publication PMC12216759 (Nature Communications, 2025).

Experiments:
Assay type in all cases: biochemical
[1] = molecular target: T1, SHV-5 M69I (Enterobacter cloacae, UniProt Q6QNE1, M65I); assay: hydrolysis kinetics of purified enzyme
[2] = molecular target: T2, SHV-5 (Enterobacter cloacae, UniProt Q6QNE1); assay: steady-state hydrolysis kinetics of purified enzyme
[3] = molecular target: T2, SHV-5; assay: as above; remark: listed apart in the source
[4] = molecular target: T1, SHV-5 M69I; assay: as above
[5] = molecular target: T2, SHV-5; assay: as above; remark: listed apart in the source
[6] = molecular target: T1, SHV-5 M69I; assay: as above; remark: listed apart in the source

CC(C)(O/N=C(\C(=O)N[C@@H]1C(=O)N2C(C(=O)[O-])=C(C[N+]3(CCNC(=O)c4ccc(O)c(O)c4Cl)CCCC3)CS[C@H]12)c1csc(N)n1)C(=O)O [cefiderocol]
hydrolysis kinetics of purified enzyme (UV, 259 nm); KM too high to determine [1]: 1.2 × 10^3 M^−1s^−1 (kcat/KM)
steady-state hydrolysis kinetics of purified enzyme (UV, 259 nm) [2]: 9 × 10^3 M^−1s^−1 (kcat/KM)

CO/N=C(\C(=O)N[C@@H]1C(=O)N2C(C(=O)O)=C(COC(C)=O)CS[C@H]12)c1csc(N)n1 [cefotaxime]
steady-state hydrolysis kinetics of purified enzyme (UV, 264 nm) [3]: 8 × 10^5 M^−1s^−1 (kcat/KM)
steady-state hydrolysis kinetics of purified enzyme (UV, 264 nm) [4]: 2.3 × 10^4 M^−1s^−1 (kcat/KM)

CC(=O)OCC1=C(C(=O)O)N2C(=O)[C@@H](NC(=O)Cc3cccs3)[C@H]2SC1 [cephalothin]
steady-state hydrolysis kinetics of purified enzyme (UV, 262 nm) [5]: 1 ×10^6 M^−1s^−1 (kcat/KM)
steady-state hydrolysis kinetics of purified enzyme (UV, 262 nm) [6]: 8 × 10^4 M^−1s^−1 (kcat/KM)
